# The source made the active and inactive calls.
# Target: T1, ADP/ATP translocase 2 (Homo sapiens, UniProt P05141)
# T1 sequence (P05141 whole entry): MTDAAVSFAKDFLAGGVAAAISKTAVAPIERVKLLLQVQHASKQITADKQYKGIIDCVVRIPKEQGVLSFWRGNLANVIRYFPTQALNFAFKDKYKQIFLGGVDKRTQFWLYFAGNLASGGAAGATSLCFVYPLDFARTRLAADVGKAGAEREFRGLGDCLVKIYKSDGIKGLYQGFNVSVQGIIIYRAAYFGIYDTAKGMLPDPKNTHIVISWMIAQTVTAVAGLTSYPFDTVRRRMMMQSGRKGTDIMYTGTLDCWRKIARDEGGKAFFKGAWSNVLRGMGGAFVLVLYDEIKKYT
# Note: in the data inactive means no Kd found up to 30 µM.
row,Compound,Kd
1,Cn1ncc(Cl)c1-c1cc(C(=O)N[C@H](CN)Cc2cccc(F)c2)sc1Cl [AFURESERTIB],> 30 µM (inactive)
2,CNS(=O)(=O)Nc1nccc(Cc2c(C)c3ccc(Oc4ncccn4)cc3oc2=O)c1F [AVUTOMETINIB],> 30 µM (inactive)
3,COc1cc(CCc2cc(NC(=O)c3ccc(N4C[C@@H](C)N[C@@H](C)C4)cc3)n[nH]2)cc(OC)c1 [AZD-4547],> 30 µM (inactive)
4,Cc1nc(N)sc1-c1ccnc(Nc2ccc(N3CCOCC3)cc2)n1 [CYC-116],> 30 µM (inactive)

# Target: Bone morphogenetic protein receptor type-1A (Homo sapiens, UniProt P36894)
# Sequence (P36894 whole entry): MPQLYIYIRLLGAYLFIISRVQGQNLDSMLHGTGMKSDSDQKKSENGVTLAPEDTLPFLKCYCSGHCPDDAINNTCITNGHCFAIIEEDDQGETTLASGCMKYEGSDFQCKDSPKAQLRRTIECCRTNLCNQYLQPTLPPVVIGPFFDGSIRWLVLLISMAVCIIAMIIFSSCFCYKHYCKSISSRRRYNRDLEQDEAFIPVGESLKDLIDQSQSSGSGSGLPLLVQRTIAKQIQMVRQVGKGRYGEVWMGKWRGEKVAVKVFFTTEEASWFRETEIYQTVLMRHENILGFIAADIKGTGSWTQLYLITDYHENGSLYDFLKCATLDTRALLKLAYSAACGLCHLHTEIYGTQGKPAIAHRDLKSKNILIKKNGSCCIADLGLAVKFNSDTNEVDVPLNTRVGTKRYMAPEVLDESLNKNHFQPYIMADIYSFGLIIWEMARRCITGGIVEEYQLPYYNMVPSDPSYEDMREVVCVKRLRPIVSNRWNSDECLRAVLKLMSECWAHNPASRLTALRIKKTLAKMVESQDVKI
row,Compound,Kd
1,Cn1ncc(Cl)c1-c1cc(C(=O)N[C@H](CN)Cc2cccc(F)c2)sc1Cl [AFURESERTIB],> 30 µM (inactive)
2,CNS(=O)(=O)Nc1nccc(Cc2c(C)c3ccc(Oc4ncccn4)cc3oc2=O)c1F [AVUTOMETINIB],> 30 µM (inactive)
3,COc1cc(CCc2cc(NC(=O)c3ccc(N4C[C@@H](C)N[C@@H](C)C4)cc3)n[nH]2)cc(OC)c1 [AZD-4547],> 30 µM (inactive)
4,Cc1nc(N)sc1-c1ccnc(Nc2ccc(N3CCOCC3)cc2)n1 [CYC-116],> 30 µM (inactive)

# Target: T2, Probable ATP-dependent RNA helicase DDX6 (Homo sapiens, UniProt P26196)
# T2 sequence (P26196 whole entry): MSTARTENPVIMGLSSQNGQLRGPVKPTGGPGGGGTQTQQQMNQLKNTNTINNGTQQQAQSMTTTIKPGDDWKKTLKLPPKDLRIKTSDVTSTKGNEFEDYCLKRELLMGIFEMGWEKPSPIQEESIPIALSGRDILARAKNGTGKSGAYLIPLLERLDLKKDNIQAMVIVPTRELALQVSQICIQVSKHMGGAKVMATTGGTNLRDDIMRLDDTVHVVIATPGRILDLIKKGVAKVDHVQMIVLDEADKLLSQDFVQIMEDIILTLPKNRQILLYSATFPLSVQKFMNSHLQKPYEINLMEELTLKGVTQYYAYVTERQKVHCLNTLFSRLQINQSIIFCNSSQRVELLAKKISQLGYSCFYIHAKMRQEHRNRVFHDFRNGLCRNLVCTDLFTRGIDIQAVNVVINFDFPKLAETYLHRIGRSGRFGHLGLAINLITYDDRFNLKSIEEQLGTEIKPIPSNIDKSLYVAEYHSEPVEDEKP
row,Compound,Kd
1,CNS(=O)(=O)Nc1nccc(Cc2c(C)c3ccc(Oc4ncccn4)cc3oc2=O)c1F [AVUTOMETINIB],> 30 µM (inactive)
2,COc1cc(CCc2cc(NC(=O)c3ccc(N4C[C@@H](C)N[C@@H](C)C4)cc3)n[nH]2)cc(OC)c1 [AZD-4547],> 30 µM (inactive)
3,Cc1nc(N)sc1-c1ccnc(Nc2ccc(N3CCOCC3)cc2)n1 [CYC-116],> 30 µM (inactive)

# Target: Actin-related protein 2 (Homo sapiens, UniProt P61160)
row,Compound,Kd
1,Cn1ncc(Cl)c1-c1cc(C(=O)N[C@H](CN)Cc2cccc(F)c2)sc1Cl [AFURESERTIB],> 30 µM (inactive)
2,CNS(=O)(=O)Nc1nccc(Cc2c(C)c3ccc(Oc4ncccn4)cc3oc2=O)c1F [AVUTOMETINIB],> 30 µM (inactive)
3,COc1cc(CCc2cc(NC(=O)c3ccc(N4C[C@@H](C)N[C@@H](C)C4)cc3)n[nH]2)cc(OC)c1 [AZD-4547],> 30 µM (inactive)
4,Cc1nc(N)sc1-c1ccnc(Nc2ccc(N3CCOCC3)cc2)n1 [CYC-116],> 30 µM (inactive)

# Target: T3, Ribosyldihydronicotinamide dehydrogenase [quinone] (Homo sapiens, UniProt P16083)
# T3 sequence (P16083 whole entry): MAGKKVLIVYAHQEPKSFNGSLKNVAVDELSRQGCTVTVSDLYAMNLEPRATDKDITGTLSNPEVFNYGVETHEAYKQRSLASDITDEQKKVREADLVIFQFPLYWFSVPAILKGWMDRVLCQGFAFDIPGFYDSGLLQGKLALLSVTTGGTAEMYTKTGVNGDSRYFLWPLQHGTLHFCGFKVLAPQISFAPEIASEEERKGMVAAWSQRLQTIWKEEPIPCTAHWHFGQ
row,Compound,Kd
1,Cn1ncc(Cl)c1-c1cc(C(=O)N[C@H](CN)Cc2cccc(F)c2)sc1Cl [AFURESERTIB],> 30 µM (inactive)
2,CNS(=O)(=O)Nc1nccc(Cc2c(C)c3ccc(Oc4ncccn4)cc3oc2=O)c1F [AVUTOMETINIB],> 30 µM (inactive)
3,COc1cc(CCc2cc(NC(=O)c3ccc(N4C[C@@H](C)N[C@@H](C)C4)cc3)n[nH]2)cc(OC)c1 [AZD-4547],> 30 µM (inactive)
4,Cc1nc(N)sc1-c1ccnc(Nc2ccc(N3CCOCC3)cc2)n1 [CYC-116],0.648 µM (active)

# Target: Casein kinase II subunit alpha' (Homo sapiens, UniProt P19784)
# Sequence (P19784 whole entry): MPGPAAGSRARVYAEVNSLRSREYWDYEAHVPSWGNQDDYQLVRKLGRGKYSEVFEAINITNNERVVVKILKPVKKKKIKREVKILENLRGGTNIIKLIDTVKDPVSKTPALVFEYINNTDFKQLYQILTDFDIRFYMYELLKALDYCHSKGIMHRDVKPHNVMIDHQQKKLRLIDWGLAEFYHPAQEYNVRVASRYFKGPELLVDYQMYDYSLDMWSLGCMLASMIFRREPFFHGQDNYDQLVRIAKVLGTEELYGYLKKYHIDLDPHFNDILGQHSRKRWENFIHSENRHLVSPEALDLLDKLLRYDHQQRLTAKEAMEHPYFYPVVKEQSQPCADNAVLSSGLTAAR
row,Compound,Kd
1,Cn1ncc(Cl)c1-c1cc(C(=O)N[C@H](CN)Cc2cccc(F)c2)sc1Cl [AFURESERTIB],> 30 µM (inactive)
2,CNS(=O)(=O)Nc1nccc(Cc2c(C)c3ccc(Oc4ncccn4)cc3oc2=O)c1F [AVUTOMETINIB],> 30 µM (inactive)
3,COc1cc(CCc2cc(NC(=O)c3ccc(N4C[C@@H](C)N[C@@H](C)C4)cc3)n[nH]2)cc(OC)c1 [AZD-4547],> 30 µM (inactive)
4,Cc1nc(N)sc1-c1ccnc(Nc2ccc(N3CCOCC3)cc2)n1 [CYC-116],0.015 µM (active)

# Target: Serine/threonine-protein kinase 26 (Homo sapiens, UniProt Q9P289)
# Sequence (Q9P289 whole entry): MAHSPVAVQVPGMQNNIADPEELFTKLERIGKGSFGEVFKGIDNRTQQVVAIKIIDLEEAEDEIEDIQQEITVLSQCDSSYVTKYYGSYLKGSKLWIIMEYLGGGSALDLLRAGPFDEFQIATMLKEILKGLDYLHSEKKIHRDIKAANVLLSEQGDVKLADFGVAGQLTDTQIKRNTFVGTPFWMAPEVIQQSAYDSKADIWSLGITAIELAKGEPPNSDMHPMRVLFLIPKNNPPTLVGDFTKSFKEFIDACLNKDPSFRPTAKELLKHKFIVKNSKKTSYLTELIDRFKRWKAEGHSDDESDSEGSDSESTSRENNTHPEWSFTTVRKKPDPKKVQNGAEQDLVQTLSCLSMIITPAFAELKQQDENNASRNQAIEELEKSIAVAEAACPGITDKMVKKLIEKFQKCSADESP
row,Compound,Kd
1,Cn1ncc(Cl)c1-c1cc(C(=O)N[C@H](CN)Cc2cccc(F)c2)sc1Cl [AFURESERTIB],> 30 µM (inactive)
2,Cc1nc(N)sc1-c1ccnc(Nc2ccc(N3CCOCC3)cc2)n1 [CYC-116],0.013 µM

# Target: T4, Structural maintenance of chromosomes protein 1A (Homo sapiens, UniProt Q14683)
# T4 sequence (Q14683 whole entry): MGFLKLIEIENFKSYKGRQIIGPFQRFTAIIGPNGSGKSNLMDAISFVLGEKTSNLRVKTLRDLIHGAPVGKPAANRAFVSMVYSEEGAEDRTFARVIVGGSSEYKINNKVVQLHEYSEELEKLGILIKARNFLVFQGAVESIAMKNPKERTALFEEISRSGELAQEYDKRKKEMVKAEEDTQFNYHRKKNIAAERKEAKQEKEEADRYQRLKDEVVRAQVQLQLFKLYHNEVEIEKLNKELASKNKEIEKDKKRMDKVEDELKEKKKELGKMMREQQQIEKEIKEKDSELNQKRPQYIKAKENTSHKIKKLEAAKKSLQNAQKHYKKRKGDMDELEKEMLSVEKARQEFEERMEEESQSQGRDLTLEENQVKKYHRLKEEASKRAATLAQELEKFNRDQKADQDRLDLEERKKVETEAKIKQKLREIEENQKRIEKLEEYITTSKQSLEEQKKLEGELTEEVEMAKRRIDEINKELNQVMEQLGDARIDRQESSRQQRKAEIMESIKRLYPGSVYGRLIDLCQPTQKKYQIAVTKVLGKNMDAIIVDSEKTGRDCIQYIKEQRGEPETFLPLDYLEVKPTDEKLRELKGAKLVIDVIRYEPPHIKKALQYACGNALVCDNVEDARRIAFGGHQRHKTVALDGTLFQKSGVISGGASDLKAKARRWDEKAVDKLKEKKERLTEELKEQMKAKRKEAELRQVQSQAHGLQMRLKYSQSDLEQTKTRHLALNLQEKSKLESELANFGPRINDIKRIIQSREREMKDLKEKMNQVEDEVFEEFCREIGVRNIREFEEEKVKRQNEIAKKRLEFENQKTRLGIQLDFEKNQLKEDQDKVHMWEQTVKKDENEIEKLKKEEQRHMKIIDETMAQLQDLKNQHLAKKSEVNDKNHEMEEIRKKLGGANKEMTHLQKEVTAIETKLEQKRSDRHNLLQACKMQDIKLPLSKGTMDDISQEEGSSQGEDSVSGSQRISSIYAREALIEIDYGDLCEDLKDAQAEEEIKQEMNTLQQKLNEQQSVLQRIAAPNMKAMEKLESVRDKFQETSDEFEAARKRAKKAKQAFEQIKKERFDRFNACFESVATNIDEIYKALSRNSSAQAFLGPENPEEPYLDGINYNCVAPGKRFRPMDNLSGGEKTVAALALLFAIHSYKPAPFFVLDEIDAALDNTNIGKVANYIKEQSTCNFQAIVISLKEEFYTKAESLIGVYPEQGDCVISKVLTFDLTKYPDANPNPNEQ
row,Compound,Kd
1,Cn1ncc(Cl)c1-c1cc(C(=O)N[C@H](CN)Cc2cccc(F)c2)sc1Cl [AFURESERTIB],> 30 µM (inactive)
2,CNS(=O)(=O)Nc1nccc(Cc2c(C)c3ccc(Oc4ncccn4)cc3oc2=O)c1F [AVUTOMETINIB],> 30 µM (inactive)
3,COc1cc(CCc2cc(NC(=O)c3ccc(N4C[C@@H](C)N[C@@H](C)C4)cc3)n[nH]2)cc(OC)c1 [AZD-4547],> 30 µM (inactive)
4,Cc1nc(N)sc1-c1ccnc(Nc2ccc(N3CCOCC3)cc2)n1 [CYC-116],> 30 µM (inactive)

# Target: Serine/threonine-protein kinase/endoribonuclease IRE1 (Homo sapiens, UniProt O75460)
# Sequence (O75460 whole entry): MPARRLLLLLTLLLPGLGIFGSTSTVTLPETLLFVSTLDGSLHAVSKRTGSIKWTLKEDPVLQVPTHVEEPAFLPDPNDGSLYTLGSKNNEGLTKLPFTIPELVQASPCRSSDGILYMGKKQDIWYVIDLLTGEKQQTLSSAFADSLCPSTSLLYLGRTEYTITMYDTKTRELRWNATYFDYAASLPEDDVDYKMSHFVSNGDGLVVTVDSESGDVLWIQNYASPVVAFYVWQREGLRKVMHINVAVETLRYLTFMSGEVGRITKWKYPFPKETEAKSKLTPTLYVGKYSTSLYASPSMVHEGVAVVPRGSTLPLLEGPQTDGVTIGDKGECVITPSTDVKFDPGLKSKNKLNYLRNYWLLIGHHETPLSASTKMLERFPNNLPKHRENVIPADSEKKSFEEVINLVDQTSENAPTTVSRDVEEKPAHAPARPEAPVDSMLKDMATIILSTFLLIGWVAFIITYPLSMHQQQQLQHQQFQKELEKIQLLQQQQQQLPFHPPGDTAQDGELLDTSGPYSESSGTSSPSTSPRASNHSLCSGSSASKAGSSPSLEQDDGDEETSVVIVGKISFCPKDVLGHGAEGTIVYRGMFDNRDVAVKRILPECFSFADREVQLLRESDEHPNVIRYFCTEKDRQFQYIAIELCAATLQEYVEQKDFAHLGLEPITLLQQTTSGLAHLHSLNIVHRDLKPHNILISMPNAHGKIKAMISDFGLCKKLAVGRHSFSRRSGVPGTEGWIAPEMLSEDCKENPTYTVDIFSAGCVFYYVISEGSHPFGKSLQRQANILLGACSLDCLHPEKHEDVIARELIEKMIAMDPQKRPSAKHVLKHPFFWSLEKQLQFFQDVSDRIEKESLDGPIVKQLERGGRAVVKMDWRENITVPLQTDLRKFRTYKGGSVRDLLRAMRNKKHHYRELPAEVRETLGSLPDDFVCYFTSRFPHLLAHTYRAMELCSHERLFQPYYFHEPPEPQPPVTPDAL
row,Compound,Kd
1,Cn1ncc(Cl)c1-c1cc(C(=O)N[C@H](CN)Cc2cccc(F)c2)sc1Cl [AFURESERTIB],> 30 µM (inactive)
2,CNS(=O)(=O)Nc1nccc(Cc2c(C)c3ccc(Oc4ncccn4)cc3oc2=O)c1F [AVUTOMETINIB],> 30 µM (inactive)
3,COc1cc(CCc2cc(NC(=O)c3ccc(N4C[C@@H](C)N[C@@H](C)C4)cc3)n[nH]2)cc(OC)c1 [AZD-4547],> 30 µM (inactive)
4,Cc1nc(N)sc1-c1ccnc(Nc2ccc(N3CCOCC3)cc2)n1 [CYC-116],> 30 µM (inactive)
